The values that follow come from ChEMBL document CHEMBL1201862, “PubChem BioAssay data set” (2004).

Test systems include HCC 2998; UACC-257; SNB-19; HCT-116; EKVX; MOLT-4; SF-268; NCI-H522; OVCAR-3; A498; CCRF-CEM; SR; RPMI-8226; 786-0; HOP-62; HL-60; HOP-92.
Holding throughout (test): NCI anticancer screen, dose series, 48 h

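Tested at 5 concentrations; 48 h exposure; 96-well plates; endpoints linearly interpolated, else capped at highest concentration. Abbreviation: GI50, concentration required for 50% inhibition of growth.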 Calls of active or inactive are those of the source. No stated cut-off is given here; in the data, active = GI50 up to about 1.1 µM and inactive = higher.

Regarding `Cc1cc(NS(=O)(=O)c2ccc(NC(=O)c3ccc(Cl)c4c(Nc5ccc(S(=O)(=O)N=C(N)N)cc5)c5ccccc5nc34)cc2)no1`, the GI50 is 22.3 µM (inactive) with HCC 2998; > 100 µM (inactive) with UACC-257; 39.7 µM (inactive) in the assay with SNB-19; 36 µM (inactive) in the assay on HCT-116; 95.1 µM (inactive) in the assay on EKVX; 15.2 µM (inactive) in the assay on MOLT-4. In addition, the GI50 was 42.3 µM (inactive) with SF-268; 20 µM (inactive) with NCI-H522; 27 µM (inactive) in the assay with OVCAR-3; > 100 µM (inactive) in the assay on A498; 28.3 µM (inactive) in the assay on CCRF-CEM; 27.6 µM (inactive) in the assay with SR. In addition, the GI50 in the assay on RPMI-8226 is 59.7 µM (inactive); in the assay on 786-0 it was 45.6 µM (inactive); in the assay with HOP-62 it was 21.6 µM (inactive).
For the compound `CCOc1cc2cnc3c4cc(OC)c(OC)cc4ccc3c2cc1OC`, the GI50 in the assay on HCC 2998 was > 100 µM (inactive); in the assay with UACC-257, > 100 µM (inactive); in the assay on HL-60, 40.2 µM (inactive); in the assay with HOP-92, > 100 µM (inactive); in the assay on SNB-19, 19.4 µM (inactive); in the assay with HCT-116, > 100 µM (inactive). Besides, the GI50 was > 100 µM (inactive) in the assay on EKVX; 49.8 µM (inactive) with MOLT-4; 37.3 µM (inactive) in the assay with SF-268; 15.2 µM (inactive) in the assay with NCI-H522; 29.9 µM (inactive) in the assay with OVCAR-3; 23.8 µM (inactive) in the assay on CCRF-CEM. Moreover, the GI50 was 27.3 µM (inactive) in the assay on SR, > 100 µM (inactive) in the assay on RPMI-8226, > 100 µM (inactive) in the assay on 786-0 and > 100 µM (inactive) with HOP-62.
Regarding `COc1ccc(N2C(=O)/C(=C/c3ccc(N(CCC#N)CCC#N)cc3C)N=C2/C=C\c2ccccc2)cc1`, the GI50 in the assay on UACC-257 was 99.1 µM (inactive); with HL-60, 92.7 µM (inactive); in the assay on HOP-92, > 100 µM (inactive); with SNB-19, > 100 µM (inactive); in the assay on HCT-116, 76.6 µM (inactive); in the assay on MOLT-4 it was 34.3 µM (inactive). In addition, the GI50 is 22.6 µM (inactive) in the assay with SF-268; 17 µM (inactive) with NCI-H522; > 100 µM (inactive) in the assay on OVCAR-3; 24 µM (inactive) in the assay with CCRF-CEM; 44 µM (inactive) with SR; 41.1 µM (inactive) with RPMI-8226. For the same compound, the GI50 is 44.4 µM (inactive) in the assay with 786-0 and 24.4 µM (inactive) in the assay on HOP-62.
`COc1cccc(-c2cc(O)c3ccccc3n2)c1`: the GI50 in the assay on HCC 2998 was 6.58 µM (inactive); in the assay with UACC-257, 2.32 µM (inactive); in the assay on HL-60, 2.98 µM (inactive); in the assay on SNB-19, 6.82 µM (inactive); with HCT-116 it was 5.53 µM (inactive); in the assay with EKVX, 52.2 µM (inactive). The GI50 in the assay with MOLT-4 is 6.55 µM (inactive); in the assay on SF-268 it was 10.3 µM (inactive); in the assay on NCI-H522 it was 3.06 µM (inactive); in the assay on OVCAR-3 it was 4.2 µM (inactive); in the assay on A498, 11.4 µM (inactive); in the assay with CCRF-CEM, 4.56 µM (inactive). Besides, the GI50 in the assay on SR was 5.5 µM (inactive); in the assay on RPMI-8226, 5.45 µM (inactive); in the assay on 786-0, 5.25 µM (inactive); in the assay on HOP-62 it was 8.18 µM (inactive).
In the case of `COC(=O)/C(=N\NC(=S)NN)C(C(=O)C(=O)Nc1ccccc1C(N)=O)c1nc2ccccc2nc1O` (stereo not drawn), the GI50 with HCC 2998 was > 100 µM (inactive); in the assay on UACC-257, > 100 µM (inactive); in the assay on HOP-92 it was 43.5 µM (inactive); with SNB-19, > 100 µM (inactive); with HCT-116, > 100 µM (inactive); with EKVX, > 100 µM (inactive). For the same compound, the GI50 in the assay on MOLT-4, with SF-268, with NCI-H522, with CCRF-CEM, in the assay with SR and in the assay with RPMI-8226 was > 100 µM (inactive) in each case. Moreover, the GI50 in the assay with 786-0 was > 100 µM (inactive).
With `C=C[C@@]12CCCCC1C/C(=C(/O)OC)C(=O)C2` (stereo partly drawn), the GI50 in the assay with HCC 2998, in the assay with UACC-257, in the assay with HL-60, with HOP-92, with SNB-19 and in the assay with HCT-116 was > 100 µM (inactive) in each case. Besides, the GI50 in the assay with EKVX, in the assay with MOLT-4, with SF-268, with NCI-H522, with OVCAR-3 and in the assay with CCRF-CEM was > 100 µM (inactive) in each case. In addition, the GI50 in the assay on SR, in the assay on RPMI-8226, in the assay on 786-0 and in the assay on HOP-62 was > 100 µM (inactive) each time.
On to `Cc1[nH]c2ccccc2c1C1=NO/C(=N\O)C(c2c(C)[nH]c3ccccc23)C1` (stereo not drawn), for which the GI50 with HCC 2998 was 37.9 µM (inactive); with UACC-257, 71.3 µM (inactive); in the assay with HL-60, 20.5 µM (inactive); in the assay with HOP-92, 20.8 µM (inactive); in the assay with SNB-19, 72.8 µM (inactive); with HCT-116, 28.3 µM (inactive). The GI50 with EKVX is 27.3 µM (inactive); with MOLT-4 it was 21.4 µM (inactive); in the assay with SF-268 it was 46 µM (inactive); with OVCAR-3, 26.9 µM (inactive); with A498 it was 42.8 µM (inactive); in the assay on CCRF-CEM, 31.4 µM (inactive). In addition, the GI50 in the assay on SR was 23.8 µM (inactive); with RPMI-8226, 34.5 µM (inactive); in the assay with 786-0 it was 40.7 µM (inactive); in the assay with HOP-62, 21.7 µM (inactive).
For the compound `CC(C)=CCC/C(C)=C/CC/C(C)=C/Cc1c(O)c2ccccc2oc1=O`, the GI50 in the assay on HCC 2998 is > 100 µM (inactive); with UACC-257 it was 99.8 µM (inactive); with HL-60, 99.1 µM (inactive); with HOP-92 it was > 100 µM (inactive); in the assay with SNB-19, > 100 µM (inactive); in the assay on HCT-116, 89.1 µM (inactive). The GI50 with EKVX was > 100 µM (inactive); with MOLT-4 it was > 100 µM (inactive); with SF-268 it was > 100 µM (inactive); in the assay with NCI-H522, > 100 µM (inactive); with OVCAR-3, 75.5 µM (inactive); in the assay on CCRF-CEM, > 100 µM (inactive). Also, the GI50 is > 100 µM (inactive) in the assay with SR, 91.6 µM (inactive) in the assay with RPMI-8226, > 100 µM (inactive) with 786-0 and > 100 µM (inactive) with HOP-62.
Regarding `Cc1nc(N)sc1C(=O)/C=C/c1ccc(/C=C/C(=O)c2sc(NC(=O)CCCCCCCCC(=O)Nc3nc(C)c(C(=O)/C=C/c4ccc(/C=C/C(=O)c5sc(N)nc5C)cc4)s3)nc2C)cc1`, the GI50 was > 100 µM (inactive) in the assay with HCC 2998; > 100 µM (inactive) in the assay with UACC-257; > 100 µM (inactive) with HL-60; < 0.01 µM (active) in the assay with HOP-92; > 100 µM (inactive) with SNB-19; 92 µM (inactive) with HCT-116. Moreover, the GI50 in the assay on EKVX is > 100 µM (inactive); in the assay on MOLT-4, > 100 µM (inactive); in the assay on SF-268, > 100 µM (inactive); in the assay with NCI-H522, 64.6 µM (inactive); in the assay with OVCAR-3, 62.8 µM (inactive); in the assay on CCRF-CEM it was 80.9 µM (inactive). Also, the GI50 with SR was > 100 µM (inactive); with RPMI-8226, > 10 µM (inactive); with 786-0 it was > 100 µM (inactive); with HOP-62, > 100 µM (inactive).
